# Measurements: patent publication US10160747B2, “Compounds and methods for kinase modulation, and indications therefor” (Plexxikon Inc., priority 2016, dated 2018)
# Biological target: T1, BA/F3-FLT3-ITD + D835Y (Homo sapiens, UniProt P36888, D835Y, cells depend on it, form not given)
# T1 sequence (P36888 with tags, fused parts or gaps INS600HVDFREYEYD/D835Y): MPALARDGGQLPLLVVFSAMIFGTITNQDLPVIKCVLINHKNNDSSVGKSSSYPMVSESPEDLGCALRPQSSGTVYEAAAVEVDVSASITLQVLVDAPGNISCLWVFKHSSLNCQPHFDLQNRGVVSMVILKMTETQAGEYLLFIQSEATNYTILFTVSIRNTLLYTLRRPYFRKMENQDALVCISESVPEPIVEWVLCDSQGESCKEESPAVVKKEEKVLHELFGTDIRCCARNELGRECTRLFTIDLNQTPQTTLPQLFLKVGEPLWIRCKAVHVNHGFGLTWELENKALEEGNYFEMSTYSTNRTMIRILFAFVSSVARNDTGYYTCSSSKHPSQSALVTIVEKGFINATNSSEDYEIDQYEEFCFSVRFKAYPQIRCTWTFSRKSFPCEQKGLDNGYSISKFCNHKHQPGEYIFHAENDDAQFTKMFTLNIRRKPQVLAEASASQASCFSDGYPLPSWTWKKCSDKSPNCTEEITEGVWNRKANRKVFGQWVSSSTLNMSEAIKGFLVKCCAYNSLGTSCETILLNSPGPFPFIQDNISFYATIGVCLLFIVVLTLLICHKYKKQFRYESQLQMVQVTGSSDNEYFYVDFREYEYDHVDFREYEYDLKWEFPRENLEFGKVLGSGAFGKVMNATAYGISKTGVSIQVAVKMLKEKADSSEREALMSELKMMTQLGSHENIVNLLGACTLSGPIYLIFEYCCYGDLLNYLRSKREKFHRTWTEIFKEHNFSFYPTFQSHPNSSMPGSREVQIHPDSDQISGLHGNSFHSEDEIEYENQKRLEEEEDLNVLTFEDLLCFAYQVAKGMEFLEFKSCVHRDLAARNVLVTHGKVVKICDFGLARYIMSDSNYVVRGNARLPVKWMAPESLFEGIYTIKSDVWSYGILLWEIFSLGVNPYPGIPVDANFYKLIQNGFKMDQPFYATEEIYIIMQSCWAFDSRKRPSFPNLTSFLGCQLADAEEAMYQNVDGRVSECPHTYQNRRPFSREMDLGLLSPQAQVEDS
# Assay: Engineered BA/F3 cell growth assay, FLT3 ITD/D835Y
# Format: cell-based, murine
# Settings: 3 d growth
# Outline: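 IC50 derived from CellTiter-Glo ATP luminescence after 3 days at 37 °C, 5% CO2, over eight 1:3 dilutions from 1 μM (0.2% DMSO final). Cells: IL-3-independent murine Ba/F3 expressing full-length FLT3 ITD/D835Y, 1×10^4 per well.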
row,GI50 [µM],Structure (SMILES)
1,0.0001 to 10,"O=C(Cc1ccc(-c2cnc(Nc3cnn(C4CC4)c3)nc2)cc1F)Nc1ccc(C(F)(F)F)cn1 [Compound P-0243, 2-[4-[2-[(1-cyclopropylpyrazol-4-yl)amino]pyrimidin-5-yl]-2-fluoro-phenyl]-N-[5-(trifluoromethyl)-2-pyridyl]acetamide]"
2,0.0001 to 10,"O=C(Cc1ccc(-c2cnc(Nc3cnn(C4CC4)c3)nc2)cc1F)Nc1cc(C(F)(F)F)ccn1 [Compound P-0244, 2-[4-[2-[(1-cyclopropylpyrazol-4-yl)amino]pyrimidin-5-yl]-2-fluoro-phenyl]-N-[4-(trifluoromethyl)-2-pyridyl]acetamide]"
3,0.0001 to 10,"CCn1cc(Nc2ncc(-c3ccc(CC(=O)Nc4cnc(OC)c(C(F)(F)F)c4)cc3F)cn2)cn1 [Compound P-0246, 2-[4-[2-[(1-ethylpyrazol-4-yl)amino]pyrimidin-5-yl]-3-fluoro-phenyl]-N-[6-methoxy-5-(trifluoromethyl)-3-pyridyl]acetamide]"
4,0.0001 to 10,"CCn1cc(Nc2ncc(-c3cc(F)c(CC(=O)Nc4cnc(OC)c(C(F)(F)F)c4)cc3F)cn2)cn1 [Compound P-0247, 2-[4-[2-[(1-ethylpyrazol-4-yl)amino]pyrimidin-5-yl]-2,5-difluoro-phenyl]-N-[6-methoxy-5-(trifluoromethyl)-3-pyridyl]acetamide]"
5,0.0001 to 10,"CCn1cc(Nc2ncc(-c3ccc(CC(=O)Nc4cnc(C)c(C(F)(F)F)c4)cc3F)cn2)cn1 [Compound P-0248, 2-[4-[2-[(1-ethylpyrazol-4-yl)amino]pyrimidin-5-yl]-3-fluoro-phenyl]-N-[6-methyl-5-(trifluoromethyl)-3-pyridyl]acetamide]"
6,0.0001 to 10,"CCn1cc(Nc2ncc(-c3cc(F)c(CC(=O)Nc4cnc(C)c(C(F)(F)F)c4)cc3F)cn2)cn1 [Compound P-0249, 2-[4-[2-[(1-ethylpyrazol-4-yl)amino]pyrimidin-5-yl]-2,5-difluoro-phenyl]-N-[6-methyl-5-(trifluoromethyl)-3-pyridyl]acetamide]"
7,0.0001 to 10,"CCn1cc(Nc2ncc(-c3ccc(CC(=O)Nc4cc(C(F)(F)F)ccn4)cc3)cn2)cn1 [Compound P-0250, 2-[4-[2-[(1-ethylpyrazol-4-yl)amino]pyrimidin-5-yl]phenyl]-N-[4-(trifluoromethyl)-2-pyridyl]acetamide]"
8,0.0001 to 10,"CCn1cc(Nc2ncc(-c3ccc(CC(=O)Nc4ccc(C(F)(F)F)cn4)cc3)cn2)cn1 [Compound P-0251, 2-[4-[2-[(1-ethylpyrazol-4-yl)amino]pyrimidin-5-yl]phenyl]-N-[5-(trifluoromethyl)-2-pyridyl]acetamide]"
9,0.0001 to 10,"CCn1cc(Nc2ncc(-c3ccc(CC(=O)Nc4ccc(C(F)(F)F)nc4)cc3)cn2)cn1 [Compound P-0252, 2-[4-[2-[(1-ethylpyrazol-4-yl)amino]pyrimidin-5-yl]phenyl]-N-[6-(trifluoromethyl)-3-pyridyl]acetamide]"
10,0.0001 to 10,"CCn1cc(Nc2ncc(-c3ccc(CC(=O)Nc4cnc(OC)c(C(F)(F)F)c4)cc3)cn2)cn1 [Compound P-0253, 2-[4-[2-[(1-ethylpyrazol-4-yl)amino]pyrimidin-5-yl]phenyl]-N-[6-methoxy-5-(trifluoromethyl)-3-pyridyl]acetamide]"
11,0.0001 to 10,"CCn1cc(Nc2ncc(-c3ccc(CC(=O)Nc4cnc(C)c(C(F)(F)F)c4)cc3)cn2)cn1 [Compound P-0254, 2-[4-[2-[(1-ethylpyrazol-4-yl)amino]pyrimidin-5-yl]phenyl]-N-[6-methyl-5-(trifluoromethyl)-3-pyridyl]acetamide]"
12,0.0001 to 10,"CCn1cc(Nc2ncc(-c3ccc(CC(=O)Nc4cc(C(F)(F)F)ccn4)c(F)c3)cn2)cn1 [Compound P-0255, 2-[4-[2-[(1-ethylpyrazol-4-yl)amino]pyrimidin-5-yl]-2-fluoro-phenyl]-N-[4-(trifluoromethyl)-2-pyridyl]acetamide]"
13,0.0001 to 10,"CCn1cc(Nc2ncc(-c3ccc(CC(=O)Nc4ccc(C(F)(F)F)cn4)c(F)c3)cn2)cn1 [Compound P-0256, 2-[4-[2-[(1-ethylpyrazol-4-yl)amino]pyrimidin-5-yl]-2-fluoro-phenyl]-N-[5-(trifluoromethyl)-2-pyridyl]acetamide]"
14,0.0001 to 10,"CCn1cc(Nc2ncc(-c3ccc(CC(=O)Nc4ccc(C(F)(F)F)nc4)c(F)c3)cn2)cn1 [Compound P-0257, 2-[4-[2-[(1-ethylpyrazol-4-yl)amino]pyrimidin-5-yl]-2-fluoro-phenyl]-N-[6-(trifluoromethyl)-3-pyridyl]acetamide]"
15,0.0001 to 10,"CCn1cc(Nc2ncc(-c3ccc(CC(=O)Nc4cncc(C(F)(F)F)c4)c(F)c3)cn2)cn1 [Compound P-0258, 2-[4-[2-[(1-ethylpyrazol-4-yl)amino]pyrimidin-5-yl]-2-fluoro-phenyl]-N-[5-(trifluoromethyl)-3-pyridyl]acetamide]"
16,0.0001 to 10,"CCn1cc(Nc2ncc(-c3ccc(CC(=O)Nc4cnc(OC)c(C(F)(F)F)c4)c(F)c3)cn2)cn1 [Compound P-0259, 2-[4-[2-[(1-ethylpyrazol-4-yl)amino]pyrimidin-5-yl]-2-fluoro-phenyl]-N-[6-methoxy-5-(trifluoromethyl)-3-pyridyl]acetamide]"
17,0.0001 to 10,"CCn1cc(Nc2ncc(-c3ccc(CC(=O)Nc4cnc(Cl)c(C(F)(F)F)c4)c(F)c3)cn2)cn1 [Compound P-0260, N-[6-chloro-5-(trifluoromethyl)-3-pyridyl]-2-[4-[2-[(1-ethylpyrazol-4-yl)amino]pyrimidin-5-yl]-2-fluoro-phenyl]acetamide]"
18,0.0001 to 10,"CCn1cc(Nc2ncc(-c3ccc(CC(=O)Nc4cnc(C)c(C(F)(F)F)c4)c(F)c3)cn2)cn1 [Compound P-0261, 2-[4-[2-[(1-ethylpyrazol-4-yl)amino]pyrimidin-5-yl]-2-fluoro-phenyl]-N-[6-methyl-5-(trifluoromethyl)-3-pyridyl]acetamide]"
19,0.0001 to 10,"COc1ncc(NC(=O)Cc2ccc(-c3cnc4[nH]nc(C5CC5)c4c3)cc2F)cc1C(F)(F)F [Compound P-0262, 2-[4-(3-cyclopropyl-1H-pyrazolo[3,4-b]pyridin-5-yl)-2-fluoro-phenyl]-N-[6-methoxy-5-(trifluoromethyl)-3-pyridyl]acetamide]"
20,0.0001 to 10,"COc1ncc(NC(=O)Cc2ccc(-c3cnc4[nH]nc(C5CC5)c4c3)cc2)cc1C(F)(F)F [Compound P-0263, 2-[4-(3-cyclopropyl-1H-pyrazolo[3,4-b]pyridin-5-yl)phenyl]-N-[6-methoxy-5-(trifluoromethyl)-3-pyridyl]acetamide]"
21,0.0001 to 10,"COCCn1cc(Nc2ncc(-c3ccc(CC(=O)Nc4cnc(OC)c(C(F)(F)F)c4)c(F)c3)cn2)cn1 [Compound P-0265, 2-[2-fluoro-4-[2-[[1-(2-methoxyethyl)pyrazol-4-yl]amino]pyrimidin-5-yl]phenyl]-N-[6-methoxy-5-(trifluoromethyl)-3-pyridyl]acetamide]"
22,0.0001 to 10,"COCCn1cc(Nc2ncc(-c3ccc(CC(=O)Nc4cnc(Cl)c(C(F)(F)F)c4)c(F)c3)cn2)cn1 [Compound P-0266, N-[6-chloro-5-(trifluoromethyl)-3-pyridyl]-2-[2-fluoro-4-[2-[[1-(2-methoxyethyl)pyrazol-4-yl]amino]pyrimidin-5-yl]phenyl]acetamide]"
23,0.0001 to 10,"COCCn1cc(Nc2ncc(-c3ccc(CC(=O)Nc4cncc(C(F)(F)F)c4)c(F)c3)cn2)cn1 [Compound P-0267, 2-[2-fluoro-4-[2-[[1-(2-methoxyethyl)pyrazol-4-yl]amino]pyrimidin-5-yl]phenyl]-N-[5-(trifluoromethyl)-3-pyridyl]acetamide]"
24,0.0001 to 10,"COCCn1cc(Nc2ncc(-c3ccc(CC(=O)Nc4ccc(C(F)(F)F)nc4)c(F)c3)cn2)cn1 [Compound P-0268, 2-[2-fluoro-4-[2-[[1-(2-methoxyethyl)pyrazol-4-yl]amino]pyrimidin-5-yl]phenyl]-N-[6-(trifluoromethyl)-3-pyridyl]acetamide]"
25,0.0001 to 10,"COCCn1cc(Nc2ncc(-c3ccc(CC(=O)Nc4ccc(C(F)(F)F)cn4)c(F)c3)cn2)cn1 [Compound P-0269, 2-[2-fluoro-4-[2-[[1-(2-methoxyethyl)pyrazol-4-yl]amino]pyrimidin-5-yl]phenyl]-N-[5-(trifluoromethyl)-2-pyridyl]acetamide]"
26,0.0001 to 10,"COCCn1cc(Nc2ncc(-c3ccc(CC(=O)Nc4cc(C(F)(F)F)ccn4)c(F)c3)cn2)cn1 [Compound P-0270, 2-[2-fluoro-4-[2-[[1-(2-methoxyethyl)pyrazol-4-yl]amino]pyrimidin-5-yl]phenyl]-N-[4-(trifluoromethyl)-2-pyridyl]acetamide]"
